Melting point data for twelve compounds are collected here from US7579342B2, “Pteridine compounds for the treatment of psoriasis” (AstraZeneca, priority 2000, dated 2009).

The melting point is the temperature of the solid-liquid transition.

On to `C[C@H](CO)Nc1nc(SCc2ccno2)nc2[nH]c(=O)cnc12` [Example 22, 4-[[(1R)-2-Hydroxy-1-methylethyl]amino]-2-[(5-isoxazolylmethyl)thio]-7(8H)-pteridinone], for which the melting point lay within 191 to 194 °C.

`O=c1cnc2c(NC(CO)CO)nc(SCc3cccc(C(F)(F)F)c3F)nc2[nH]1` [Example 31, 2-[[(2-Fluoro-3-(trifluoromethyl)phenyl)methyl]thio]-4-[[2-hydroxy-1-(hydroxymethyl)ethyl]amino]-7(8H)-pteridinone] showed a melting point of 244 to 245 °C.

For the compound `COc1ccc(CSc2nc(NC(CO)CO)c3ncc(=O)[nH]c3n2)cc1Cl` [Example 11, 2-[[(3-Chloro-4-methoxyphenyl)methyl]thio]-4-[[2-hydroxy-1-(hydroxymethyl)ethyl]amino]-7(8H)-pteridinone], the melting point fell in the range of 209 to 211 °C.

Consider `C[C@H](CO)Nc1nc(SCc2cccs2)nc2[nH]c(=O)cnc12` [Example 26, 4-[[(1R)-2-Hydroxy-1-methylethyl]amino]-2-[[(2-thienyl)methyl)thio]-7(8H)-pteridinone], for which the melting point lay within 209 to 212 °C.

The compound `Cc1ccc(CSc2nc(N[C@H](C)CO)c3ncc(=O)[nH]c3n2)o1` [Example 24, 4-[[(1R)-2-Hydroxy-1-methylethyl]amino]-2-[[(5-methyl-2-furanyl)methyl]thio]-7(8H)-pteridinone] displayed a melting point of 197 to 199 °C.

Consider `O=c1cnc2c(NC(CO)CO)nc(SCc3cccs3)nc2[nH]1` [Example 28, 4-[[-2-Hydroxy-1-(hydroxymethyl)ethyl]amino]-2-[(2-thienylmethyl)thio]-7(8H)-pteridinone], for which the melting point was 220 to 223 °C.

In turn, `C[C@H](CO)Nc1nc(SCc2cccc(C(F)(F)F)c2F)nc2[nH]c(=O)cnc12` [Example 30, 2-[[(2-Fluoro-3-(trifluoromethyl)phenyl)methyl]thio]-4-[[(1R)-2-hydroxy-1-methylethyl]amino]-7(8H)-pteridinone] returned a melting point of 217 to 219 °C.

In turn, `O=c1cnc2c(NCCO)nc(SCc3cccc(C(F)(F)F)c3F)nc2[nH]1` [Example 32, 2-[[(2-Fluoro-3-(trifluoromethyl)phenyl)methyl]thio]-4-[(2-hydroxyethyl)amino]-7(8H)-pteridinone] registered a melting point of 221 to 222 °C.

`O=c1cnc2c(NC(CO)CO)nc(SCc3cccc(Cl)c3F)nc2[nH]1` [Example 8, 2-[[(3-Chloro-2-fluorophenyl)methyl]thio]-4-[[2-hydroxy-1-(hydroxymethyl)ethyl]amino]-7(8H)-pteridinone] yielded a melting point of 218.5 to 220.5 °C.

Turning to `C[C@H](CO)Nc1nc(SCc2ccccc2F)nc2[nH]c(=O)cnc12` [Example 25, 2-[[(2-Fluorophenyl)methyl]thio]-4-[[(1R)-2-hydroxy-1-methylethyl]amino]-7(8H)-pteridinone], the melting point fell in the range of 203 to 205 °C.

The compound `O=c1cnc2c(NCCO)nc(SCc3cccc(Cl)c3F)nc2[nH]1` [Example 7, 2-[[(3-Chloro-2-fluorophenyl)methyl]thio]-4-[(2-hydroxyethyl)amino]-7(8H)-pteridinone] yielded a melting point of 195 to 196.5 °C.

The compound `C[C@H](CO)Nc1nc(SCc2cccc(Cl)c2F)nc2[nH]c(=O)cnc12` [Example 6, 2-[[(3-Chloro-2-fluorophenyl)methyl]thio]-4-[[(1R)-2-hydroxy-1-methylethyl]amino]-7(8H)-pteridinone] returned a melting point of 209 to 211 °C.
